Patent publication US20130109682A1, “CYCLIC ETHER COMPOUNDS USEFUL AS KINASE INHIBITORS” (NOVARTIS AG, priority 2010, published 2013)

What was measured:
PIM1 = PIM1 (Homo sapiens, UniProt P11309); assay: KinaseGlo Pim1 ATP depletion assay; assay type: biochemical
Method: KinaseGlo Pim1 ATP Depletion Assay
The activity of PIM1 is measured using a luciferase-luciferin based ATP detection reagent to quantify ATP depletion resulting from kinase-catalyzed phosphoryl transfer to a peptide substrate. Compounds to be tested are dissolved in 100% DMSO and directly distributed into white 384-well plates at 0.5 μA per well. To start the reaction, 10 μA of 5 nM Pim1 kinase and 80 μM BAD peptide (RSRHSSYPAGT-OH) in assay buffer (50 mM HEPES pH 7.5, 5 mM MgCl2, 1 mM DTT, 0.05% BSA) is added into each well. After 15 minutes, 10 μl of 40 μM ATP in assay buffer is added. Final assay concentrations are 2.5 nM PIM1, 20 μM ATP, 40 μM BAD peptide and 2.5% DMSO. The reaction is performed until approximately 50% of the ATP is depleted, then stopped with the addition of 20 μA KinaseGlo Plus (Promega Corporation) solution. The stopped reaction is incubated for 10 minutes and the remaining ATP detected via luminescence on the Victor2 (Perkin Elmer). […] IC50, the half maximal inhibitory concentration, represents the concentration of a test compound that is required for 50% inhibition of its target in vitro.

GSK3β = GSK3β (Homo sapiens, UniProt P49841); assay: GSK3β ATP depletion assay; assay type: biochemical; details: read-out: GSK3b IC50
Method: GSK3β ATP Depletion Assay
The activity of GSK3β is measured using a luciferase-luciferin based ATP detection reagent to quantify ATP depletion resulting from kinase-catalyzed phosphoryl transfer to a peptide substrate. Compounds to be tested are dissolved in 100% DMSO and directly distributed into white 384-well plates at 0.5 μl per well. To start the reaction, 10 μl of 10 nM GSK3B kinase and 20 μM biotinylated CREB peptide ([…](pS)YR-NH2) in assay buffer (50 mM TRIS pH 7.5, 15 mM MgCl2, 1 mM DTT, 0.1% BSA) is added into each well. After 15 minutes, 10 μl of 2 μM ATP in assay buffer is added. Final assay concentrations are 5 nM GSK3B, […], 10 μM b-CREB peptide and 2.5% DMSO. The reaction is performed until approximately 50% of the ATP is depleted, then stopped with the addition of 20 μl KinaseGlo (Promega Corporation) solution. The stopped reaction is incubated for 10 minutes and the remaining ATP is detected via luminescence on the Victor2 (Perkin Elmer).

[1] = tested on: KMS11 (human myeloma cell line); assay: Cell proliferation assay (CellTiter-Glo), KMS11; assay type: cell-based; details: Homo sapiens, KMS-11; KMS11-Luc cells
Method: KMS11 (human myeloma cell line), were cultured in IMDM supplemented with 10% FBS, sodium pyruvate and antibiotics. Cells were plated in the same medium at a density of 2000 cells per well into 96 well tissue culture plates, with outside wells vacant, on the day of assay. MMl.s (human myeloma cell line), were cultured in RPMI1640 supplemented with 10% FBS, sodium pyruvate and antibiotics. Cells were plated in the same medium at a density of 5000 cells per well into 96 well tissue culture plates, with outside wells vacant, on the day of assay.
Test compounds supplied in DMSO were diluted into DMSO at 500 times the desired final concentrations before dilution into culture media to 2 times final concentrations. Equal volumes of 2× compounds were added to the cells in 96 well plates and incubated at 37° C. for 3 days.
After 3 days plates were equilibrated to room temperature and equal volume of CellTiter-Glow Reagent (Promega) was added to the culture wells. The plates were agitated briefly and luminescent signal was measured with luminometer.
Using the procedures of Cell Proliferation Assay, the EC50 concentration of indicated compounds of the examples in were determined in KMS11 cells as shown in Table 4.

PIM2 = PIM2 (Homo sapiens, UniProt Q9P1W9); assay: KinaseGlo Pim2 ATP depletion assay; assay type: biochemical
Method: KinaseGlo Pim2 ATP Depletion Assay
The activity of PIM2 is measured using a luciferase-luciferin based ATP detection reagent to quantify ATP depletion resulting from kinase-catalyzed phosphoryl transfer to a peptide substrate. Compounds to be tested are dissolved in 100% DMSO and directly distributed into white 384-well plates at 0.5 piper well. To start the reaction, 10 μl of 10 nM Pim2 kinase and 20 μM BAD peptide (RSRHSSYPAGT-OH) in assay buffer (50 mM HEPES pH 7.5, 5 mM MgCl2, 1 mM DTT, 0.05% BSA) is added into each well. After 15 minutes, 10 μl of 8 μM ATP in assay buffer is added. Final assay concentrations are 5 nM PIM2, 4 μM ATP, 10 μM BAD peptide and 2.5% DMSO. The reaction is performed until approximately 50% of the ATP is depleted, then stopped with the addition of 20 μl KinaseGlo Plus (Promega Corporation) solution. The stopped reaction is incubated for 10 minutes and the remaining ATP detected via luminescence on the Victor2 (Perkin Elmer).

PIM3 = PIM3 (Homo sapiens, UniProt Q86V86); assay: KinaseGlo Pim3 ATP depletion assay; assay type: biochemical
Method: KinaseGlo Pim3 ATP Depletion Assay
The activity of PIM3 is measured using a luciferase-luciferin based ATP detection reagent to quantify ATP depletion resulting from kinase-catalyzed phosphoryl transfer to a peptide substrate. Compounds to be tested are dissolved in 100% DMSO and directly distributed into white 384-well plates at 0.5 μl per well. To start the reaction, 10 μl of 10 nM Pim3 kinase and 200 μM BAD peptide (RSRHSSYPAGT-OH) in assay buffer (50 mM HEPES pH 7.5, 5 mM MgCl2, 1 mM DTT, 0.05% BSA) is added into each well. After 15 minutes, 10 μl of 80 μM ATP in assay buffer is added. Final assay concentrations are 5 nM […], 40 μM ATP, 100 μM BAD peptide and 2.5% DMSO. The reaction is performed until approximately 50% of the ATP is depleted, then stopped by the addition of 20 μl KinaseGlo Plus (Promega Corporation) solution. The stopped reaction is incubated for 10 minutes and the remaining ATP detected via luminescence on the Victor2 (Perkin Elmer).

PIM2, sequence (Q9P1W9 whole entry): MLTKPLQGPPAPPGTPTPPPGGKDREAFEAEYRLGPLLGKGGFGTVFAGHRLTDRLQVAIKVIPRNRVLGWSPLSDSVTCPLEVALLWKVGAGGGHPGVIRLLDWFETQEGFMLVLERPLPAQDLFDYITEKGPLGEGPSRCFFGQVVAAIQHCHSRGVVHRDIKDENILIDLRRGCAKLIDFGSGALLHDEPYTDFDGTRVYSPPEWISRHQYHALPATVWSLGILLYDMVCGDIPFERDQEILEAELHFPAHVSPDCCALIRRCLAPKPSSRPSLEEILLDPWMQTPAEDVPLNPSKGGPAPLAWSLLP
GSK3β, sequence (P49841 whole entry, species assumed): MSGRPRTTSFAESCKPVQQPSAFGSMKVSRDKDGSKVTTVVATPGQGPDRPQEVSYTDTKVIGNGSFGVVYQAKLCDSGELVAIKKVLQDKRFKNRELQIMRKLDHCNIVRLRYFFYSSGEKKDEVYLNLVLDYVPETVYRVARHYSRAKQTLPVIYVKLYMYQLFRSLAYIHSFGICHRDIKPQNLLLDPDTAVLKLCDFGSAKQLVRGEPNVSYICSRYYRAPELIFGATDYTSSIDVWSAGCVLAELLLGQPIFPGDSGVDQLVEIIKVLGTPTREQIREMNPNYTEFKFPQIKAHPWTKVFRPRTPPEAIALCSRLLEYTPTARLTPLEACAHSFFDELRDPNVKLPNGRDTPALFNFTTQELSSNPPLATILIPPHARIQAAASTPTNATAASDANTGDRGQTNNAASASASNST
PIM1, sequence (P11309 whole entry): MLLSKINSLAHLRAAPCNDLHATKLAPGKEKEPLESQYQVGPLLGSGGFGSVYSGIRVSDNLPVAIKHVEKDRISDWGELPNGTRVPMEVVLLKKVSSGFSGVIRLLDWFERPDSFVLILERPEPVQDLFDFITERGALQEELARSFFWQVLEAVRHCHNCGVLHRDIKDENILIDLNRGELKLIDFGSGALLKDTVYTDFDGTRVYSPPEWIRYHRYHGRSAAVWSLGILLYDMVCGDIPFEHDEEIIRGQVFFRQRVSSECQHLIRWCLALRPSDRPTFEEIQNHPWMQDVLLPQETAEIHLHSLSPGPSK

Row | IC50 (PIM1) | IC50 (GSK3β) | EC50 [1] | IC50 (PIM2) | IC50 (PIM3) | Compound
1 | 68 nM | 272 nM | > 10000 nM | 3420 nM | 88 nM | C[C@H]1O[C@@H](c2ccncc2NC(=O)c2csc(-c3c(F)cccc3F)n2)C[C@@H](O)[C@]1(C)O (stereo in doubt) [Example 109, 2-(2,6-difluorophenyl)-N-(4-((2R,4R,5S,6R)-4,5-dihydroxy-5,6-dimethyltetrahydro-2H-pyran-2-yl)pyridin-3-yl)thiazole-4-carboxamide]
2 | 19 nM | 659 nM | > 10000 nM | 347 nM | 16 nM | C[C@H]1O[C@@H](c2ccncc2NC(=O)c2ccc(F)c(-c3c(F)cccc3F)n2)C[C@@H](O)[C@]1(C)O (stereo in doubt) [Example 110, 6-(2,6-difluorophenyl)-N-(4-((2R,4R,5S,6R)-4,5-dihydroxy-5,6-dimethyltetrahydro-2H-pyran-2-yl)pyridin-3-yl)-5-fluoropicolinamide]
3 | 1 nM | 26 nM | > 10000 nM | 43 nM | 2 nM | C[C@@H]1O[C@H](c2ccncc2NC(=O)c2csc(-c3c(F)cccc3F)n2)C[C@H](O)[C@@]1(C)O (stereo in doubt) [Example 111, 2-(2,6-difluorophenyl)-N-(4-((2S,4S,5R,6S)-4,5-dihydroxy-5,6-dimethyltetrahydro-2H-pyran-2-yl)pyridin-3-yl)thiazole-4-carboxamide]
4 | 10 nM | 104 nM | > 10000 nM | 2320 nM | 165 nM | C[C@@H]1C[C@H](O)C[C@H](c2ccncc2NC(=O)c2csc(-c3c(F)cccc3F)n2)O1 (stereo in doubt) [Example 125, 2-(2,6-difluorophenyl)-N-(4-((2R,4S,6R)-4-hydroxy-6-methyltetrahydro-2H-pyran-2-yl)pyridin-3-yl)thiazole-4-carboxamide]
5 | 4 nM | 548 nM | > 10000 nM | 213 nM | 52 nM | C[C@@H]1C[C@H](O)C[C@H](c2ccncc2NC(=O)c2ccc(F)c(-c3c(F)cccc3F)n2)O1 (stereo in doubt) [Example 126, 6-(2,6-difluorophenyl)-5-fluoro-N-(4-((2R,4S,6R)-4-hydroxy-6-methyltetrahydro-2H-pyran-2-yl)pyridin-3-yl)picolinamide]
6 | 1 nM | 76 nM | > 10000 nM | 149 nM | 7 nM | C[C@@H]1O[C@H](c2ccncc2NC(=O)c2csc(-c3c(F)cccc3F)n2)C[C@H](O)[C@H]1O (stereo in doubt) [Example 135, 2-(2,6-difluorophenyl)-N-(4-((2S,4S,5R,6S)-4,5-dihydroxy-6-methyltetrahydro-2H-pyran-2-yl)pyridin-3-yl)thiazole-4-carboxamide]
7 | 18 nM | 165 nM | > 10000 nM | 363 nM | 13 nM | C[C@H]1O[C@@H](c2ccncc2NC(=O)c2csc(-c3c(F)cccc3F)n2)C[C@@H](O)[C@@H]1O (stereo in doubt) [Example 136, 2-(2,6-difluorophenyl)-N-(4-((2R,4R,5S,6R)-4,5-dihydroxy-6-methyltetrahydro-2H-pyran-2-yl)pyridin-3-yl)thiazole-4-carboxamide]
8 | 17 nM | 33 nM | 9350 nM | 5 nM | 3.2 nM | N#Cc1ccc(F)c(-c2nc(C(=O)Nc3cnccc3[C@H]3C[C@@H](O)[C@H](O)[C@@H](CCl)O3)ccc2F)c1F [Example 1, N-(4-((2R,4R,5S,6S)-6-(chloromethyl)-4,5-dihydroxytetrahydro-2H-pyran-2-yl)pyridin-3-yl)-6-(3-cyano-2,6-difluorophenyl)-5-fluoropicolinamide]
9 | 42 nM | 51 nM | > 10000 nM | 13 nM | 8.3 nM | CC[C@H]1O[C@@H](c2ccncc2NC(=O)c2ccc(F)c(-c3c(F)ccc(C#N)c3F)n2)C[C@@H](O)[C@@H]1O [Example 2, 6-(3-cyano-2,6-difluorophenyl)-N-(4-((2R,4R,5S,6R)-6-ethyl-4,5-dihydroxytetrahydro-2H-pyran-2-yl)pyridin-3-yl)-5-fluoropicolinamide]
10 | 8.7 nM | 1170 nM | > 10000 nM | 66 nM | 12 nM | CC[C@]1(O)[C@H](O)C[C@H](c2ccncc2NC(=O)c2nc(-c3nccs3)ccc2N)O[C@@H]1C [Example 3, 3-amino-N-(4-((2R,4R,5S,6R)-5-ethyl-4,5-dihydroxy-6-methyltetrahydro-2H-pyran-2-yl)pyridin-3-yl)-6-(thiazol-2-yl)picolinamide]
11 | 1.1 nM | 268 nM | 7240 nM | 4 nM | 3.1 nM | N#C[C@H]1OC(c2ccncc2NC(=O)c2nc(-c3c(F)cccc3F)c(F)cc2N)=C[C@@H](O)[C@@H]1O [Example 4, 3-amino-N-(4-((2R,3S,4R)-2-cyano-3,4-dihydroxy-3,4-dihydro-2H-pyran-6-yl)pyridin-3-yl)-6-(2,6-difluorophenyl)-5-fluoropicolinamide]
12 | 70 nM | 720 nM | > 10000 nM | 280 nM | 53.6 nM | C=C1[C@@H](O)C[C@@H](c2ccncc2NC(=O)c2nc(-c3c(F)cccc3F)ncc2N)OC12CC2 [Example 6, 5-amino-2-(2,6-difluorophenyl)-N-(4-((5S,7S)-7-hydroxy-8-methylene-4-oxaspiro[2.5]octan-5-yl)pyridin-3-yl)pyrimidine-4-carboxamide]
13 | 8 nM | 879 nM | > 10000 nM | 151 nM | 17 nM | C=C1[C@@H](O)C[C@@H](c2ccncc2NC(=O)c2ccc(F)c(-c3c(F)cccc3F)n2)OC12CC2 [Example 7, 6-(2,6-difluorophenyl)-5-fluoro-N-(4-((5S,7S)-7-hydroxy-8-methylene-4-oxaspiro[2.5]octan-5-yl)pyridin-3-yl)picolinamide]
